Results: publication PMC11574021, “CEP192 localises mitotic Aurora-A activity by priming its interaction with TPX2” (The EMBO Journal, 2024)

Columns and labels:
[1] = test system: PLK1-pT210 in RPE1 p53-/- cells; assay: Western blot densitometry, PLK1-pT210, RPE1 p53-/-; type: cell-based, Homo sapiens; details: mitotic RPE1 p53-/- lysates, inhibitor 30 min
Protocol: For measuring monopolar spindle diameter and counting centriolar foci by immunofluorescence, cells were treated with 10 µM STLC for 1 h and 4 h prior to fixation, respectively.
Drugs were resuspended in DMSO to the stock concentrations indicated in square brackets.
Cells were lysed on ice for 30 min in lysis buffer (50 mM tris pH 8.0, 300 mM NaCl, 0.2%(v/v) NP-40, 10%(v/v) glycerol, protease inhibitor cocktail C, phosphatase inhibitor cocktail 3 (Sigma, 1:200 dilution), 100 nM okadaic acid (Enzo, ALX-350-003-C100)). Lysates were then centrifuged at 14,000 × g, 15 min, 4 °C, the supernatants were transferred to a fresh tube, and the pellet was discarded. Protein concentrations were measured by Bradford assay using Protein Assay Dye Reagent Concentrate (Bio-Rad Laboratories, 5000006). NuPage LDS sample buffer, supplemented with NuPAGE sample reducing agent (Invitrogen) were added prior to boiling for 10 min at 90 °C. […] Nitrocellulose was then blocked in 5% milk (wt/v) in TBS, 0.1% Tween (v/v) (TBST) for 1 h. Primary and secondary antibodies were diluted in 5% milk, TBST and incubated overnight at 4 °C or for 1 h at room temperature, respectively. […]
Densitometric quantification of western blots was also performed in ImageJ. Intensity was measured in a rectangular region of interest (ROI) around each band. […] An adjacent region was also measured to account for background intensity.

[2] = test system: Aurora-A:TACC3 complexes in RPE1 p53-/- cells; assay: Proximity ligation assay Aurora-A:TACC3, RPE1 p53-/-; type: cell-based, Homo sapiens; details: siRNA 48 h
Protocol: siRNA depletion was carried out by reverse transfection using oligofectamine (Thermo Scientific, 12252011) and lipofectamine RNAiMax (Thermo Scientific, 13778075), according to the manufacturer’s instructions, for U251 and RPE1 cells, respectively. For immunofluorescence, 1 × 10^5 cells were seeded in six-well plates and simultaneously transfected with 60 pmol siRNA duplex and 3 µl transfection reagent diluted in 200 µl Opti-MEM serum-free medium. Growth medium was added to a final volume of 2 ml. For western blotting, 1 × 10^6 cells were seeded in 10 cm dishes and transfected with 300 pmol siRNA duplex and 15 µl transfection reagent diluted in 1000 µl Opti-MEM. Growth medium was added to a final volume of 10 ml. Cells were incubated with siRNA for 48 h prior to fixation or harvesting. As a negative control (siControl) Silencer select negative control No.1 siRNA was transfected as above. For TACC3 depletion, where two siRNA duplexes were used, 40 pmol of each was transfected per well.
Cells were seeded and fixed as above, then a proximity ligation assay (PLA) was carried out according to the manufacturer’s instructions with the supplied buffers (Navinci, NaveniFlex Cell MR Red, NC.MR.100 Red). All incubations are for 1 h at 37 °C, unless otherwise stated. […]

Compound	T-loop phosphorylation of PLK1 (pT210) [1]	PLA foci formation between TACC3 and Aurora-A antibodies [2]
COc1cc(Nc2ncc3c(n2)-c2ccc(Cl)cc2C(c2c(F)cccc2OC)=NC3)ccc1C(=O)O [Alisertib]	decreased	–
5′-CGGUAGUGAUAAAAGCUCAtt-3′ [siTPX2]	–	fully prevented both spindle recruitment of TACC3 and PLA foci formation
